Reference: patent publication US11795460B2, “Compositions and methods for TTR gene editing and treating ATTR amyloidosis” (Intellia Therapeutics, Inc., priority 2017, dated 2023)

Experiments:
TTR [1] = assay: TTR editing in primary cyno hepatocytes electroporated with Spy Cas9 protein and dgRNAs (Tables 10, 11); assay type: cell-based, cynomolgus monkey
Method: (§1) Primary liver hepatocytes. Primary human liver hepatocytes (PHH) and primary cynomolgus liver hepatocytes (PCH) (Gibco) were cultured per the manufacturer's protocol (Invitrogen, protocol 11.28.2012). In brief, the cells were thawed and resuspended in hepatocyte thawing medium with supplements (Gibco, Cat. CM7000) followed by centrifugation at 100 g for 10 minutes for human and 80 g for 4 minutes for cyno. The supernatant was discarded and the pelleted cells resuspended in hepatocyte plating medium plus supplement pack (Invitrogen, Cat. A1217601 and CM3000). Cells were counted and plated on Bio-coat collagen I coated 96-well plates (ThermoFisher, Cat. 877272) at a density of 33,000 cells/well for human or 60,000 cells/well for cyno (or 65,000 cells/well when assaying effects on TTR protein, described further below). Plated cells were allowed to settle and adhere for 6 or 24 hours in a tissue culture incubator at 37° C. and 5% CO2 atmosphere. After incubation cells were checked for monolayer formation and media was replaced with hepatocyte culture medium with serum-free supplement pack (Invitrogen, Cat. A1217601 and CM4000).
(§2) […] formation was performed prior to electroporation or transfection of Spy Cas9 protein loaded with guide RNAs (RNPs) onto cells. For dual guide (dgRNAs), individual crRNA and trRNA was pre-annealed by mixing equivalent amounts of reagent and incubating at 95° C. for 2 min and cooling to room temperature. Single guide (sgRNAs) were boiled at 95° C. for 2 min and cooling to room temperature. The boiled dgRNA or sgRNA was incubated with Spy Cas9 protein in Optimem for 10 minutes at room temperature to form a ribonucleoprotein (RNP) complex.
(§3) For RNP electroporation into primary human and cyno hepatocytes, the cells are thawed and resuspended in Lonza electroporation Primary Cell P3 buffer at a concentration of 2500 cells per μL for human hepatocytes and 3500 cells per μL for cyno hepatocytes. A volume of 20 μL of resuspended cells and 5 μL of RNP are mixed together per guide. 20 μL of the mixture is placed into a Lonza electroporation plate. The cells were electroporated using the Lonza nucleofector with the preset protocol EX-147. Post electroporation, the cells are transferred into a Biocoat plate containing pre-warmed maintenance media and placed in a tissue culture incubator at 37° C. and 5% CO2.
(§4) Transfected cells were harvested post-transfection at 24, 48, or 72 hours. The genomic DNA was extracted from each well of a 96-well plate using 50 μL/well BuccalAmp DNA Extraction solution (Epicentre, Cat. QE09050) per manufacturer's protocol. All DNA samples were subjected to PCR and subsequent NGS analyses, as described herein.
(§5) To quantitatively determine the efficiency of editing at the target location in the genome, sequencing was utilized to identify the presence of insertions and deletions introduced by gene editing.
(§6) Primers were designed around the target site within the gene of interest (e.g. TTR), and the genomic area of interest was amplified.
(§7) Additional PCR was performed per the manufacturer's protocols (Illumina) to add chemistry for sequencing. The amplicons were sequenced on an Illumina MiSeq instrument. The reads were aligned to a reference genome (e.g., the human reference genome (hg38), the cynomologus reference genome (mf5), the rat reference genome (rn6), or the mouse reference genome (mm10)) after eliminating those having low quality scores. The resulting files containing the reads were mapped to the reference genome (BAM files), where reads that overlapped the target region of interest were selected and the number of wild type reads versus the number of reads which contain an insertion, substitution, or deletion was calculated.
(§8) The editing percentage (e.g., the “editing efficiency” or “percent editing” or “indel frequency”) is defined as the total number of sequence reads with insertions/deletions (“indels”) or substitutions over the total number of sequence reads, including wild type. […]

TTR [2] = assay: TTR editing in HepG2 cells transfected with Spy Cas9 mRNA and dgRNAs (Table 6); assay type: cell-based, human; conditions: HepG2 cells co-transfected with Spy Cas9 mRNA (SEQ ID NO:2) and dgRNAs
Method: HepG2 cell line. The human hepatocellular carcinoma cell line HepG2 (American Type Culture Collection, Cat. HB-8065) was cultured in DMEM media supplemented with 10% fetal bovine serum. Cells were counted and plated on Bio-coat collagen I coated 96-well plates (ThermoFisher, Cat. 877272) at a density of 10,000 cells/well in a 96-well plate 24 hours prior to transfection. Cells were transfected with Lipofectamine 2000 (ThermoFisher, Cat. 11668019) per the manufacturer's protocol. Cells were sequentially transfected with lipoplex containing Spy Cas9 mRNA (100 ng), Lipofectamine 2000 (0.2 μL/well) and OptiMem followed by a separate lipoplex containing individual crRNA (25 nM), tracer RNA (25 nM), Lipofectamine 2000 (0.2 μL/well) and OptiMem.
as §4, §5, §6, §7
(§9) The editing percentage (e.g., the “editing efficiency” or “percent editing” or “indel frequency”) is defined as the total number of sequence reads with insertions/deletions (“indels”) or substitutions over the total number of sequence reads, including wild type.
(§10) Guides in dgRNA format targeting human TTR and the cynomologus matched sequences were delivered to HEK293 Cas9, HUH7 and HepG2 cell lines, as well as primary human hepatocytes and primary cynomolgus monkey hepatocytes as described in Example 1. Percent editing was determined for crRNAs comprising each guide sequence across each cell type and the guide sequences were then rank ordered based on highest % edit. The screening data for the guide sequences in Table 1 in all five cell lines are listed below (Table 4 through 11).

TTR [3] = assay: TTR editing in primary human hepatocytes electroporated with Spy Cas9 protein loaded with dgRNAs (Table 7); assay type: cell-based; conditions: dgRNA electroporated with Spy Cas9 protein (RNP)
Method: as §1, §2, §3, §4, §5, §6, §7, §8

TTR [4] = assay: TTR editing in primary human hepatocytes transfected with Spy Cas9 protein (RNP) loaded with dgRNAs (Table 8); assay type: cell-based; conditions: dgRNA transfected with Spy Cas9 protein (RNP)
Method: as §1, §2
For RNP lipoplex transfections, cells were transfected with Lipofectamine RNAiMAX (ThermoFisher, Cat. 13778150) per the manufacturer's protocol. Cells were transfected with an RNP containing Spy Cas9 (10 nM), individual guide (10 nM), tracer RNA (10 nM), Lipofectamine RNAiMAX (1.0 μL/well) and OptiMem. RNP formation was performed as described above.
as §4, §5, §6, §7, §9
Guides in dgRNA format targeting human TTR and the cynomologus matched sequences were delivered to HEK293 Cas9, HUH7 and HepG2 cell lines, as well as primary human hepatocytes and primary cynomolgus monkey hepatocytes as described in Example 1. […]

TTR [5] = assay: TTR editing in primary human hepatocytes transfected with Spy Cas9 mRNA and dgRNAs (Table 9); assay type: cell-based; conditions: dgRNA co-transfected with Spy Cas9 mRNA (SEQ ID NO:2)
Method: as §1
Lipofectamine RNAiMax (ThermoFisher, Cat. 13778150) based transfections were conducted as per the manufacturer's protocol. Cells were sequentially transfected with a lipoplex containing Spy Cas9 mRNA (100 ng), Lipofectamine RNAiMax (0.4 μL/well) and OptiMem followed by a separate lipoplex containing crRNA (25 nM) and tracer RNA (25 nM) or sgRNA (25 nM), Lipofectamine RNAiMax (0.4 μL/well) and OptiMem.
as §4, §5, §6, §7, §9, §10

off-target genomic sites = assay: Off-target oligo insertion based assay in HEK293_Cas9 cells, dgRNAs and sgRNAs (Tables 23, 24); assay type: cell-based, human; conditions: Table 23; TTR dgRNAs in HekCas9 cells, oligo insertion based assay
Method: An oligo insertion based assay (See, e.g., Tsai et al., Nature Biotechnology 33, 187-197; 2015) was used to determine potential off-target genomic sites cleaved by Cas9 targeting TTR. Forty-five dgRNAs from Table 1 (and two control guides with known off-target profiles) were screened in the HEK293 Cas9 cells. The human embryonic kidney adenocarcinoma cell line HEK293 constitutively expressing Spy Cas9 (“HEK293_Cas9”) was cultured in DMEM media supplemented with 10% fetal bovine serum and 500 μg/ml G418. Cells were plated at a density of 30,000 cells/well in a 96-well plate 24 hours prior to transfection. Cells were transfected with Lipofectamine RNAiMAX (ThermoFisher, Cat. 13778150) per the manufacturer's protocol. Cells were transfected with a lipoplex containing individual crRNA (15 nM), trRNA (15 nM), and donor oligo with (10 nM) Lipofectamine RNAiMAX (0.3 μL/well) and OptiMem. Cells were lysed 24 hours post transfection and genomic DNA was extracting using Zymo's Quick gDNA 96 Extraction kit (catalog #D3012) following the manufacturer's recommended protocol. The gDNA was quantified using the Qubit High Sensitivity dsDNA kit (Life Technologies). Libraries were prepared per the previously described method in Tsai et al, 2015 with minor modifications. Sequencing was performed on Illumina's MiSeq and HiSeq 2500. The assay identified potential off-target sites for some of the crRNAs which are plotted in FIG. 2.
Additionally, a subset of the guides was assessed for off-target potential as modified sgRNAs in the Hek_Cas9 cells via the oligo based insertion method described above. The off-target results were plotted in FIG. 4.

[6] = primary cyno hepatocytes electroporated with Spy Cas9 protein (RNP) and cyno specific dgRNAs
[7] = Table 10, primary cyno hepatocytes electroporated with Spy Cas9 protein (RNP) and dgRNAs

| Sequence | Avg % Deletion (TTR [1]; [6]) | Avg % Edit (TTR [1]; [6]) | Avg % Insert (TTR [1]; [6]) | Avg % Deletion (TTR [2]) | Avg % Edit (TTR [2]) | Avg % Insert (TTR [2]) | Avg % Deletion (TTR [3]) | Avg % Edit (TTR [3]) | Avg % Insert (TTR [3]) | Avg % Deletion (TTR [4]) | Avg % Edit (TTR [4]) | Avg % Insert (TTR [4]) | Avg % Deletion (TTR [5]) | Avg % Edit (TTR [5]) | Avg % Insert (TTR [5]) | Avg % Deletion (TTR [1]; [7]) | Avg % Edit (TTR [1]; [7]) | Avg % Insert (TTR [1]; [7]) | # Sites (off-target integration sites detected) (off-target genomic sites) |
| --- | --- | --- | --- | --- | --- | --- | --- | --- | --- | --- | --- | --- | --- | --- | --- | --- | --- | --- | --- |
| AAGUGACUUCCAGUAAGAUU (tested as dual guide RNA, chemistry not given here) [CR005371] | 8.10% | 8.42% | 0.31% | – | – | – | – | – | – | – | – | – | – | – | – | – | – | – | – |
| ACACAAAUACCAGUCCAGCG (tested as dual guide RNA, chemistry not given here) [CR000689] | 6.30% | 24.41% | 18.11% | – | – | – | – | – | – | – | – | – | – | – | – | – | – | – | – |
| ACUUGUCUUCUCUAUACCCA (tested as dual guide RNA, chemistry not given here) [CR005370] | 62.93% | 63.52% | 0.59% | – | – | – | – | – | – | – | – | – | – | – | – | – | – | – | – |
| AGCCGUGGUGGAAUAGGAGU (tested as dual guide RNA, chemistry not given here) [CR005299] | – | – | – | 2.30% | 38.61% | 36.32% | 0.35% | 8.65% | 8.30% | 0.58% | 19.37% | 18.79% | 0.60% | 9.43% | 8.93% | 0.26% | 13.48% | 13.23% | – |
| AUACCAGUCCAGCGAGGCAG (tested as dual guide RNA, chemistry not given here) [CR005366] | 76.67% | 77.00% | 0.33% | – | – | – | – | – | – | – | – | – | – | – | – | – | – | – | – |
| CAUUGACAGCAGGACUGCCU (tested as dual guide RNA, chemistry not given here) [CR005365] | 64.85% | 64.94% | 0.10% | – | – | – | – | – | – | – | – | – | – | – | – | – | – | – | – |
| CCAGUCCAGCGAGGCAGAGG (tested as dual guide RNA, chemistry not given here) [CR005367] | 50.26% | 50.79% | 0.53% | – | – | – | – | – | – | – | – | – | – | – | – | – | – | – | – |
| CCUCCUCUGCCUCGCUGGAC (tested as dual guide RNA, chemistry not given here) [CR005368] | 27.27% | 27.60% | 0.33% | – | – | – | – | – | – | – | – | – | – | – | – | – | – | – | – |
| GGCCGUGCAUGUGUUCAGAA (tested as dual guide RNA, chemistry not given here) [CR005304] | – | – | – | 54.75% | 62.82% | 8.07% | 61.63% | 67.00% | 5.53% | 45.13% | 49.45% | 4.32% | 44.47% | 45.27% | 0.83% | – | – | – | 0 |
| UAUAGGAAAACCAGUGAGUC (tested as dual guide RNA, chemistry not given here) [CR005305] | – | – | – | 1.21% | 13.51% | 12.30% | 0.40% | 3.83% | 3.53% | 0.34% | 7.07% | 6.73% | 1.60% | 7.53% | 5.93% | 0.15% | 11.28% | 11.13% | – |
| UGUCUGUCUUCUCUCAUAGG (tested as dual guide RNA, chemistry not given here) [CR005307] | – | – | – | 14.33% | 22.03% | 7.70% | 3.00% | 8.17% | 5.20% | 8.55% | 18.73% | 10.18% | 9.30% | 12.90% | 3.67% | 2.55% | 4.56% | 2.01% | – |
